This is an account of results in the kinase profiling compilation of Christmann-Franck et al. (2016).

Structures are written as SMILES.

Common to all, as to assay: KINOMEscan competition binding
Common to all, as to settings: compound 10.0 µM

Experiment [1] has as its system RET (human), P07949 [M918T].
Experiment [2] has as its system KIT (human), P10721 [V559D/V654A].
The test system of experiment [3] is RET (human), P07949 [V804M].
For experiment [4], the system named is EGFR (human), P00533 [747-751 del / S ins].
For experiment [5], the system named is EGFR (human), P00533 [T790M/L858R].
In experiment [6] the test system is EGFR (human), P00533 [T790M].
For experiment [7], the system named is FLT3 (human), P36888 [D835H].
Experiment [8] concerns FLT3 (human), P36888 [R834Q].
Experiment [9] concerns MET (human), P08581 [Y1235D].
Experiment [10] relates to ABL1 (human), P00519 [Y253F].
Experiment [11] concerns EGFR (human), P00533 [752-759 del].
Experiment [12] concerns KIT (human), P10721 [L576P].
KIT (human), P10721 [L576P], sequence (P10721 whole entry L576P, looked up): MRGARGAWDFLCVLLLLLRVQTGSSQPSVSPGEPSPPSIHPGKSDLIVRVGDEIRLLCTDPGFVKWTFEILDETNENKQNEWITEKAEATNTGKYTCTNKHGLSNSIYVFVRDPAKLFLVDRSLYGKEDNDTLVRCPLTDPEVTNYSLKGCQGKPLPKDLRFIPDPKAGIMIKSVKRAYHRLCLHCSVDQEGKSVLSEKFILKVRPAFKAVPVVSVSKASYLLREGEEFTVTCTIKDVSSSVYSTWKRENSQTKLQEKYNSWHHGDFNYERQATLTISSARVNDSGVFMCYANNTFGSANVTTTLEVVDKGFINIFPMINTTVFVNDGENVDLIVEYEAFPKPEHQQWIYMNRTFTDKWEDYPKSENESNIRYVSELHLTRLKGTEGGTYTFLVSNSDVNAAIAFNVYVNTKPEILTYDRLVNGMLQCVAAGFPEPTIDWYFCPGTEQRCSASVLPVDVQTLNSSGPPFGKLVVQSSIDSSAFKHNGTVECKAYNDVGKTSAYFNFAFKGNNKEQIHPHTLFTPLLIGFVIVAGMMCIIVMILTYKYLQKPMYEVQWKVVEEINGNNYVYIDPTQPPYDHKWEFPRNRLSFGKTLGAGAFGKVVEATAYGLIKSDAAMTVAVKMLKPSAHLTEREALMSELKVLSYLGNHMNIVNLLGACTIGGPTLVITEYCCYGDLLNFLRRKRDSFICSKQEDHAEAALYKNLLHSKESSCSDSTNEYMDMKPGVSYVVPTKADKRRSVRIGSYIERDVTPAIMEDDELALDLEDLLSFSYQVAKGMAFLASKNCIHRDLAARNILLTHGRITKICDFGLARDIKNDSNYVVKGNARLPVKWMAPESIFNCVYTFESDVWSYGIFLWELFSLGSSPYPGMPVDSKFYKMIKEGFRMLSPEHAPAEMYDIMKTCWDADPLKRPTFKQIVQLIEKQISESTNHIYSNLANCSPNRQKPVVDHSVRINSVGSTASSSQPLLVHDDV
Experiment [13] deals with ABL1 (human), P00519 [H396P].

KIT (human), P10721 [V559D/V654A], sequence (P10721 whole entry V559D/V654A, looked up): as the sequence (P10721 whole entry L576P, looked up) above, with V559D, P576L, V654A counted along it
RET (human), P07949 [V804M], sequence (P07949 whole entry V804M, looked up): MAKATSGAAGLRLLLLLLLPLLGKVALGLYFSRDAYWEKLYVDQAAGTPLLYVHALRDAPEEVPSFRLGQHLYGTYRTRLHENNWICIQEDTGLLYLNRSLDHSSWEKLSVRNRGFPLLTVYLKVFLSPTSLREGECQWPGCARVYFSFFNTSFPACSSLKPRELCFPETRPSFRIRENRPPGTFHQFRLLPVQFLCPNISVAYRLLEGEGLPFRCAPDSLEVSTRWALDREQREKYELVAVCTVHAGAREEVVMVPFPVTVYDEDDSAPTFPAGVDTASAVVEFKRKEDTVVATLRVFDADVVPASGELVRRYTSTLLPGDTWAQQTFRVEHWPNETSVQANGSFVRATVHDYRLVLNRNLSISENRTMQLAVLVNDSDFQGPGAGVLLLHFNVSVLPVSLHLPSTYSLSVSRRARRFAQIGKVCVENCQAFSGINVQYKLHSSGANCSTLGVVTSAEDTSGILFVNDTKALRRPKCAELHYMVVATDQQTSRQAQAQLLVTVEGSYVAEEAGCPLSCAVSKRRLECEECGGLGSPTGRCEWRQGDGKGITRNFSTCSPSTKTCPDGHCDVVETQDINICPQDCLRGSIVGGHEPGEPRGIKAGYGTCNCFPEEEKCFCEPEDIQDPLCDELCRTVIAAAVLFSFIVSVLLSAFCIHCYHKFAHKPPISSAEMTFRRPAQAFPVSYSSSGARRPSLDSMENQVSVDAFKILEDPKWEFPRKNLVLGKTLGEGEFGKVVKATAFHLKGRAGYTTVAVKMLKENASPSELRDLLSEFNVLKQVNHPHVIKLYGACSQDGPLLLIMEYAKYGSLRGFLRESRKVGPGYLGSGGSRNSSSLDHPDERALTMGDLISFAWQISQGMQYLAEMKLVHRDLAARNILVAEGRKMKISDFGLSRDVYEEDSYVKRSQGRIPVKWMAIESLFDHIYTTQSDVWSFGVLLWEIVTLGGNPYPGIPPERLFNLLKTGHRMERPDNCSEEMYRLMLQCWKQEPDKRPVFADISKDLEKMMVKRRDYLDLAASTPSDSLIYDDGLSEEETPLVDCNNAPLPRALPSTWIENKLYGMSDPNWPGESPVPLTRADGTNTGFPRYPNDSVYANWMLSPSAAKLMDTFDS
RET (human), P07949 [M918T], sequence (P07949 whole entry M918T, looked up): as the sequence (P07949 whole entry V804M, looked up) above, with M804V, M918T counted along it

As for `CCN1CCN(Cc2ccc(NC(=O)c3ccc(C)c(/C=C/c4cnc5[nH]ccc5c4OC)c3)cc2C(F)(F)F)CC1`, the kinase still bound, per cent of control in [1] was 0%; in experiment [2], 2.6%; in experiment [3] it was 0%; in experiment [4], 0%; in experiment [5] it was 77%; in experiment [6] it was 9.9%. Also, the kinase still bound, per cent of control in experiment [7] was determined as 0.15%; in experiment [8], 50%; in experiment [9], 79%; in experiment [10], 0.25%; in experiment [11], 0%; in experiment [12], 0%.
As to `C=CC(=O)Nc1cc(NC(=O)c2ccc(C)c(NC(=O)c3ccno3)c2)cc(C(F)(F)F)c1`, the kinase still bound, per cent of control in experiment [1] came out at 100%; in experiment [2] it was 23%; in experiment [3] it was 100%; in experiment [4] it was 100%; in experiment [5] it was 97%; in experiment [6] it was 100%. The kinase still bound, per cent of control turned out to be 100% in [7]; 100% in [8]; 100% in [9]; 63% in experiment [10]; 100% in experiment [11]; 2.3% in experiment [12].
On to `Cc1ccc(NC(=O)c2cccc(C(C)(C)C#N)c2)cc1Nc1ccc2ncn(C)c(=O)c2c1`, for which the kinase still bound, per cent of control in experiment [1] amounted to 0.4%; in experiment [2] it was 1.2%; in [3] it was 0.15%; in experiment [4] it was 14%; in [5] it was 99%; in [6], 79%. In addition, the kinase still bound, per cent of control in [7] stood at 60%; in experiment [8] it was 100%; in experiment [9], 100%; in experiment [10], 1.4%; in experiment [11] it was 17%; in experiment [12], 0.55%.
`C=CC(=O)Nc1ccc(C(=O)c2sc(Nc3ccc(N4CCN(C)CC4)cc3OC)nc2N)cc1`: the kinase still bound, per cent of control in [1] was 100%; in experiment [2] it was 100%; in experiment [3] it was 100%; in experiment [4], 41%; in experiment [5], 68%; in experiment [6], 27%. The kinase still bound, per cent of control in [7] worked out at 59%; in [8] it was 100%; in [9] it was 100%; in experiment [10], 97%; in [11] it was 53%; in experiment [12], 81%.
On to `O=C1Nc2ccc(I)cc2/C1=C/c1cc(Br)c(O)c(Br)c1`, for which the kinase still bound, per cent of control in [1] amounted to 100%; in experiment [2] it was 5.7%; in experiment [3], 100%; in experiment [4], 50%; in experiment [5], 98%; in [6], 65%. Moreover, the kinase still bound, per cent of control in [7] turned out to be 40%; in experiment [8], 100%; in experiment [9], 72%; in experiment [10], 81%; in [11] it was 35%; in experiment [12], 6.6%.
For `Cc1cc([C@@H](C)Nc2ccccc2C(=O)O)c2nc(N3CCOCC3)cc(=O)n2c1`, the kinase still bound, per cent of control in [1] was 100%; in experiment [2], 96%; in [3] it was 100%; in experiment [4], 100%; in experiment [5], 99%; in [6], 100%. Moreover, the kinase still bound, per cent of control worked out at 27% in experiment [7]; 94% in [8]; 78% in experiment [9]; 100% in experiment [10]; 100% in [11]; 95% in [12].
Consider `CC1=C(C(=O)Nc2cc3cn[nH]c3cc2F)C(c2ccc(C(F)(F)F)cc2)CC(=O)N1` (stereo not given), for which the kinase still bound, per cent of control in [1] was 15%; in experiment [2], 92%; in experiment [3], 43%; in experiment [4] it was 81%; in [5] it was 87%; in experiment [6], 40%. Besides, the kinase still bound, per cent of control was determined as 76% in experiment [7]; 77% in experiment [8]; 65% in [9]; 72% in experiment [10]; 90% in experiment [11]; 93% in [12].
For the molecule `CCN1CCN(Cc2ccc(Nc3ncc4c(n3)N(C)c3ccccc3C(=O)N4C)cc2C(F)(F)F)CC1`, the kinase still bound, per cent of control in experiment [1] is 0.6%; in experiment [2], 100%; in experiment [3], 1.2%; in experiment [4] it was 95%; in experiment [5], 90%; in [6], 100%. Also, the kinase still bound, per cent of control in [7] is 8.8%; in experiment [8], 69%; in [9], 86%; in experiment [10], 0.1%; in [11], 98%; in [12], 46%.
For the molecule `CCCS(=O)(=O)Nc1ccc(F)c(C(=O)c2c[nH]c3ncc(Cl)cc23)c1F`, the kinase still bound, per cent of control in experiment [1] was 40%; in experiment [2], 19%; in experiment [3] it was 89%; in [4], 75%; in [5], 90%; in [6], 48%. Also, the kinase still bound, per cent of control in [7] worked out at 43%; in experiment [8] it was 100%; in [9] it was 100%; in experiment [10] it was 27%; in experiment [11], 73%; in [12], 6.4%.
Turning to `CC[C@@H]1C(=O)N(C)c2cnc(Nc3ccc(C(=O)NC4CCN(C)CC4)cc3OC)nc2N1C1CCCC1`, the kinase still bound, per cent of control in experiment [1], in [2], in experiment [3], in experiment [7], in experiment [10] and in experiment [13] was 100% throughout.
`CNC(=O)Nc1ccc(-c2nc(N3CC4CCC(C3)O4)c3cnn(C4CCC5(CC4)OCCO5)c3n2)cc1`: the kinase still bound, per cent of control in experiment [1] worked out at 73%; in [2], 100%; in experiment [3], 100%; in experiment [4] it was 50%; in [5], 100%; in experiment [6] it was 68%. For the same molecule, the kinase still bound, per cent of control in experiment [7] is 82%; in [8], 79%; in [9], 24%; in experiment [10] it was 99%; in [11] it was 55%; in experiment [12], 85%.
Consider `O=C(NC1CC1)c1cccc(-c2ccc3c(NC(=O)C4CC4)n[nH]c3c2)c1`, for which the kinase still bound, per cent of control in experiment [1] is 71%; in [2], 90%; in experiment [3], 84%; in experiment [4], 74%; in experiment [5], 100%; in experiment [6], 100%. For the same molecule, the kinase still bound, per cent of control in experiment [7] was 47%; in experiment [8], 67%; in experiment [9] it was 74%; in [10] it was 60%; in experiment [11], 72%; in experiment [12], 51%.
`C=CC(=O)Nc1cccc(Nc2nc(N[C@H]3CC[C@H](N(C)C)CC3)nc3c2ncn3C(C)C)c1`: the kinase still bound, per cent of control was found to be 100% in [1]; 44% in [2]; 71% in experiment [3]; 90% in experiment [4]; 100% in experiment [5]; 68% in [6]. Also, the kinase still bound, per cent of control in [7] amounted to 5.4%; in [8], 8.4%; in experiment [9] it was 100%; in experiment [10], 62%; in experiment [11], 82%; in [12] it was 33%.
